± gives the expanded uncertainty stated by the source.
How the values were obtained:
[1] = molar heat capacity at constant pressure; conditions: 101.33 kPa, Liquid, Extra sensitive DSC
[2] = Liquid; for speed of sound: 100 kPa, Frequency=3 MHz, Sing-around technique in a fixed-path interferometer; for mass density: 101.33 kPa, Vibrating tube method

molar heat capacity at constant pressure ([1]; 293.15 K)	molar heat capacity at constant pressure ([1]; 298.15 K)	molar heat capacity at constant pressure ([1]; 303.15 K)	molar heat capacity at constant pressure ([1]; 308.15 K)	speed of sound ([2]; 293.15 K)	mass density ([2]; 293.15 K)	speed of sound ([2]; 298.15 K)	mass density ([2]; 298.15 K)	speed of sound ([2]; 303.15 K)	mass density ([2]; 303.15 K)	speed of sound ([2]; 308.15 K)	mass density ([2]; 308.15 K)	SMILES
151.62 ± 5.9 J/K/mol	152.76 ± 5.9 J/K/mol	153.92 ± 6 J/K/mol	155.09 ± 6 J/K/mol	1367.8 ± 1.5 m/s	1033.59 ± 1 kg/m3	1346 ± 1.5 m/s	1027.94 ± 1 kg/m3	1324.4 ± 1.5 m/s	1022.28 ± 1 kg/m3	1302.5 ± 1.5 m/s	1016.59 ± 1 kg/m3	C1COCCO1 [1,4-dioxane]
201.11 ± 7.8 J/K/mol	202.01 ± 7.8 J/K/mol	203.21 ± 7.9 J/K/mol	204.51 ± 7.9 J/K/mol	1477.3 ± 1.6 m/s	951.85 ± 1 kg/m3	1455 ± 1.6 m/s	947.62 ± 1 kg/m3	1432.4 ± 1.6 m/s	943.38 ± 1 kg/m3	1409.6 ± 1.6 m/s	939.14 ± 1 kg/m3	O=C1CCCCCC1 [cycloheptanone]
176.17 ± 6.8 J/K/mol	178.27 ± 6.9 J/K/mol	180.38 ± 7 J/K/mol	182.46 ± 7.1 J/K/mol	1431.2 ± 1.3 m/s	947.38 ± 1 kg/m3	1415.5 ± 1.3 m/s	942.92 ± 1 kg/m3	1395.1 ± 1.3 m/s	938.07 ± 1 kg/m3	1375.1 ± 1.3 m/s	933.19 ± 1 kg/m3	O=C1CCCCC1 [cyclohexanone]
148.03 ± 5.7 J/K/mol	149.68 ± 5.8 J/K/mol	151.18 ± 5.9 J/K/mol	153.01 ± 5.9 J/K/mol	1293 ± 1.4 m/s	884.23 ± 1 kg/m3	1269.7 ± 1.4 m/s	879.09 ± 1 kg/m3	1246.7 ± 1.4 m/s	873.91 ± 1 kg/m3	1224.3 ± 1.4 m/s	868.75 ± 1 kg/m3	C1CCOCC1 [tetrahydropyran]

Reference: the NIST ThermoML archive (doi:10.1021/acs.jced.6b00606)
